Each structure is given as a SMILES string.

The first test addresses T1, purified recombinant human Aggrecanase-1 (rAgg1) (Homo sapiens, UniProt O75173).
T1 sequence (O75173 213-837): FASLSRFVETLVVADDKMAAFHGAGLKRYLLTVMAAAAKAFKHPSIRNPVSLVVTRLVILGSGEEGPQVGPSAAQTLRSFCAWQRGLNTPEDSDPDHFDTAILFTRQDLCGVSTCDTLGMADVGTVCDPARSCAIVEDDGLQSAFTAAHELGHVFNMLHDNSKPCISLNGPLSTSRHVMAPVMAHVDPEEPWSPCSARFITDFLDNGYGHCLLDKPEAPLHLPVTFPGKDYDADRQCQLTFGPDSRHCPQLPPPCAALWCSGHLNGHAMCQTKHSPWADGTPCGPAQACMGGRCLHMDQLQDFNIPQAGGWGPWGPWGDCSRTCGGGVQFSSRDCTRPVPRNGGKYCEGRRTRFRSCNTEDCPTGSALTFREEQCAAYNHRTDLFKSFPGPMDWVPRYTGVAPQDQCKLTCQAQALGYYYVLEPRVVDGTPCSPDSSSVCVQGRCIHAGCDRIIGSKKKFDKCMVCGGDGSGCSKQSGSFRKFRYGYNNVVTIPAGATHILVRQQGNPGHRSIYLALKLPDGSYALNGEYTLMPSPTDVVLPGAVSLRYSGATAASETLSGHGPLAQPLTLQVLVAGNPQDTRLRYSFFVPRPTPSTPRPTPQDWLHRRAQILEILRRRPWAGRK
As to the kind of experiment: In vitro fluorescence screen for Aggrecanase-1 inhibitors. It is filed as biochemical. As to conditions: Table 1.
As for `COc1cc(C(=O)N[C@@H](CCC(=O)O)C(=O)NCc2ccccc2)cc(OC)c1-c1ccccc1` [Example 17AAA, N^1-benzyl-N^2-[(2,6-dimethoxy-1,1′-biphenyl-4-yl)carbonyl]-L-α-glutamine], the “Agg1 IC50 (nM)” value is “no inh”.

The same test, now with this note: Table 1; @ 7,500 (nM).
As for `CCCCOc1ccc(-c2ccc(C(=O)N[C@@H](CCC(=O)O)C(=O)NCc3ccccc3)cc2)cc1` [Example 15B, N^1-benzyl-N^2-[(4′-butoxy-1,1′-biphenyl-4-yl)carbonyl]-L-α-glutamine], the “Agg1 % @ concentration” value amounted to 67% @.

The test is the same for the next values; noted with them: Table 1; read-out: Agg1 IC50.
Turning to `O=C(O)CC[C@H](NC(=O)c1ccc(-c2ccccc2)cc1)C(=O)NCc1ccccc1F` [Example 8ZZ, N^2-(1,1′-biphenyl-4-ylcarbonyl)-N^1-(2-fluorobenzyl)-L-α-glutamine], the concentration for half-maximal inhibition (IC50) came to 210 nM.

With `Cc1ccc(CNC(=O)[C@H](CCC(=O)NO)NC(=O)c2ccc(-c3ccccc3)cc2)cc1C` [Example 33B, N^2-(1,1′-biphenyl-4-ylcarbonyl)-N^1-(3,4-dimethylbenzyl)-N^5-hydroxy-L-α-glutamamide], the IC50 is less than 30 nM.

For `O=C(O)CC[C@H](NC(=O)c1ccc(-c2ccc(OCc3ccc4ccccc4c3)cc2)cc1)C(=O)NCc1ccccc1` [Example 15H, N^1-benzyl-N^2-{[4′-(2-naphthylmethoxy)-1,1′-biphenyl-4-yl]carbonyl}-L-α-glutamine], the IC50 worked out at 200 nM.

For the molecule `Cc1c(C(=O)Nc2ccc(-c3ccc(C(=O)N[C@@H](CCC(=O)O)C(=O)O)cc3)cc2)oc2ccccc12` [Example 27, N-[(4′-{[(3-Methyl-1-benzofuran-2-yl)carbonyl]-amino}-1,1′-biphenyl-4-yl)carbonyl]-L-α-glutamic acid], the IC50 came to 400 nM.

In the case of `O=C(O)CC[C@H](NC(=O)c1ccc(Nc2ncccn2)cc1)C(=O)O` [Example 1, N-[4-(pyrimidin-2-ylamino)benzoyl]-L-glutamic acid], the IC50 came to 900 nM.

Take `Nc1cccc(CNC(=O)[C@H](CCC(=O)O)NC(=O)c2ccc(-c3ccccc3)cc2)c1` [Example 8DDDD, N^1-(3-aminobenzyl)-N^2-(1,1′-biphenyl-4-ylcarbonyl)-L-α-glutamine]: the half-maximal inhibitory concentration (IC50) was found to be 110 nM.

Take `CC(=O)NCCNC(=O)[C@H](CCC(=O)O)NC(=O)c1ccc(-c2ccccc2)cc1` [Example 8OOOOOO, N^1-[2-(acetylamino)ethyl]-N^2-(1,1′-biphenyl-4-ylcarbonyl)-L-α-glutamine]: the IC50 stood at 670 nM.

Consider `CCCCCCNC(=O)[C@H](CCC(=O)O)NC(=O)c1ccc(Oc2ccccc2)cc1` [Example 8QQQQ, N^1-hexyl-N^2-(4-phenoxybenzoyl)-L-α-glutamine], for which the concentration for half-maximal inhibition (IC50) stood at 9600 nM.

With `O=C(O)CC[C@H](NC(=O)c1ccc2ccccc2c1)C(=O)NCCCc1ccccc1` [Example 8RRRRRR, N^2-2-naphthoyl-N^1-(3-phenylpropyl)-L-α-glutamine], the IC50 is 3600 nM.

`O=C(O)CC[C@H](NC(=O)c1ccc(-c2ccccc2)cc1)C(=O)NCc1ccccc1` [Example 8EEEE, N^1-benzyl-N^2-(1,1-biphenyl-4-ylcarbonyl)-L-α-glutamine]: the concentration for half-maximal inhibition (IC50) was determined as 400 nM.

Turning to `O=C(O)CC[C@H](NC(=O)c1ccc(-c2ccccc2)cc1)C(=O)NCCN1CCOCC1` [Example 8DDD, N^2-(biphenyl-4-ylcarbonyl)-N^1-(2-morpholin-4-ylethyl)-L-α-glutamine], the half-maximal inhibitory concentration (IC50) stood at 300 nM.

Take `O=C(O)CC[C@H](NC(=O)c1ccc(-c2nccs2)cc1)C(=O)NCc1ccccc1` [Example 12D, N^1-benzyl-N^2-[4-(1,3-thiazol-2-yl)benzoyl]-L-α-glutamine]: the IC50 was more than 100000 nM.

Regarding `Cc1ccccc1CNC(=O)[C@H](CCC(=O)O)NC(=O)c1ccc(-c2ccccc2)cc1` [Example 8EE, N^2-(1,1′-biphenyl-4-ylcarbonyl)-N^1-(2-methylbenzyl)-L-α-glutamine], the IC50 amounted to 200 nM.

As for `O=C(O)CC[C@H](NC(=O)c1ccc2c(c1)Cc1ccccc1-2)C(=O)NCCCCCCO` [Example 8VVVVVV, N^2-(9H-fluoren-2-ylcarbonyl)-N^1-(6-hydroxyhexyl)-L-α-glutamine], the concentration for half-maximal inhibition (IC50) came out at 46 nM.

Regarding `Cc1ccc(CNC(=O)[C@H](CCC(=O)O)NC(=O)c2ccc(-c3ccccc3)cc2)cc1` [Example 8III, N^2-(1,1′-biphenyl-4-ylcarbonyl)-N^1-(4-methylbenzyl)-L-α-glutamine], the 50% inhibitory concentration (IC50) was found to be 120 nM.

Consider `COCCNC(=O)[C@H](CCC(=O)O)NC(=O)c1ccc(-c2ccccc2)cc1` [Example 8J, N^2-(1,1′-biphenyl-4-ylcarbonyl)-N^1-(2-methoxyethyl)-L-α-glutamine], for which the IC50 worked out at 360 nM.

Consider `CC(C)NC(=O)[C@H](CCC(=O)O)NC(=O)c1ccc(-c2ccccc2)cc1` [Example 8PPP, N^2-(biphenyl-4-ylcarbonyl)-N^1-isopropyl-L-α-glutamine], for which the 50% inhibitory concentration (IC50) stood at 130 nM.

`CC(C)(CO)NC(=O)[C@H](CCC(=O)O)NC(=O)c1ccc(-c2ccccc2)cc1` [Example 6B, N^2-(biphenyl-4-ylcarbonyl)-N^1-(2-hydroxy-1,1-dimethylethyl)-L-α-glutamine]: the IC50 is 300 nM.

As for `O=C(O)CCC(NC(=O)c1ccc(-c2ccccc2)cc1)C(=O)O` (stereo in doubt) [Example 2, N-(1,1′-biphenyl-4-ylcarbonyl)-D-glutamic acid], the IC50 amounted to 111 nM.

For `Cc1cccc(CNC(=O)[C@H](CCC(=O)O)NC(=O)c2ccc(-c3ccccc3)cc2)c1C` [Example 8HH, N^2-(1,1′-biphenyl-4-ylcarbonyl)-N^1-(2,3-dimethylbenzyl)-L-α-glutamine], the IC50 amounted to 160 nM.

As for `O=C(O)CC[C@H](NC(=O)c1ccc(-c2ccc(NC(=O)Cc3ccccc3)cc2)cc1)C(=O)O` [Example 26, N-({4′-[(Phenylacetyl)amino]1,1′-biphenyl-4-yl}carbonyl)-L-α-glutamic acid], the IC50 amounted to 5000 nM.

For the molecule `C#Cc1ccc(-c2cccc(CNC(=O)[C@H](CCC(=O)O)NC(=O)c3ccc(-c4ccccc4)cc3)c2)cc1` [Example 10P, N^2-(biphenyl-4-ylcarbonyl)-N^1-[(4′-ethynylbiphenyl-3-yl)methyl]-L-α-glutamine], the IC50 stood at 700 nM.

Turning to `O=C(O)CC[C@H](NC(=O)c1ccc(-c2ccc(NC(=O)c3ccco3)cc2)cc1)C(=O)O` [Example 28, N-{[4′-(2-furoylamino)-1,1′-biphenyl-4-yl]carbonyl}-L-α-glutamic acid], the 50% inhibitory concentration (IC50) is 400 nM.

For the molecule `CC(=O)Nc1ccc(-c2ccc(C(=O)N[C@@H](CCC(=O)O)C(=O)O)cc2)cc1` [Example 29, N-{[4′-(acetylamino)-1,1′-biphenyl-4-yl]carbonyl}-L-α-glutamic acid], the IC50 is 3000 nM.

As to `C=Cc1ccc(-c2ccc(C(=O)N[C@@H](CCC(=O)O)C(=O)NCc3ccccc3)cc2)cc1` [Example 13G, N^1-benzyl-N^2-[(4′-vinyl-1,1′-biphenyl-4-yl)carbonyl]-L-α-glutamine], the IC50 was approximately 2500 nM.

For `O=C(O)CC[C@H](NC(=O)c1ccc(-c2ccccc2)cc1)C(=O)NCc1cccc(-c2ccc(C(F)(F)F)cc2)c1` [Example 10O, N^2-(biphenyl-4-ylcarbonyl)-N^1-{[4′-(trifluoromethyl)biphenyl-3-yl]methyl}-L-α-glutamine], the 50% inhibitory concentration (IC50) worked out at 470 nM.

In the case of `COc1ccc(-c2ccc(CCNC(=O)[C@H](CCC(=O)O)NC(=O)c3ccc(-c4ccccc4)cc3)cc2)cc1` [Example 10B, N^2-(biphenyl-4-ylcarbonyl)-N^1-[2-(4′-methoxybiphenyl-4-yl)ethyl]-L-α-glutamine], the 50% inhibitory concentration (IC50) worked out at 150 nM.

For the origin of these results see US7998965B2, “Glutamate aggrecanase inhibitors” (Wyeth LLC, priority 2005, dated 2011).
